# Values joined by “and” are separate entries in the source; they are usually repeats but may differ in a detail not shown here. Identical values can stand only once. Like-named read-outs stand apart in the source and are kept apart here.
# Columns and labels:
# Experiment in all cases: Chymotrypsin coupled prolyl-isomerase assay
# CypD = CypD (Homo sapiens, UniProt P30405); conditions: for prolyl-isomerase activity (raw dose-response value): CypD
# Cyp40 = Cyp40 (Homo sapiens, UniProt Q08752); conditions: for prolyl-isomerase activity (raw dose-response value): in s^-1
# Experimental: Adapting a previously described protocol, with an Agilent Bravo Velocity 11 with a 384ST head, 90 µL assay buffer (25 mM HEPES pH 7.3, 100 mM NaCl, 0.01% Triton X-100) containing 5.28 nM cyclophilin was added into a flat, clear-bottom, black 384-well plate pre-chilled in a Corning CoolBox at 2–3 °C. Five microliters of compound pre-dissolved in 5% DMSO/assay buffer was then added to appropriate wells and incubated at 2–3 °C for 5 min. Five microliters of 0.5 mM α-chymotrypsin from bovine pancreas (Type II, lyophilized powder, Millipore-Sigma) in 20% 1 mM HCl/Assay Buffer was then added to each well and incubated at 2–3 °C for 5 min. The plate was then quickly transferred to a FLIPR Tetra High-Throughput Cellular Screening System (Molecular Devices). Using the internal liquid handling system of the FLIPR, 1 µL 0.5 mM Suc-AAPF-AMC (Chymotrypsin Substrate II, Millipore-Sigma) dissolved in 0.55 M LiCl/2,2,2-trifluoroethanol was added to each well, which was then mixed for 5 s, followed by immediate fluorescence measurements every 1 s for 330 s using a 360–380 nm excitation LED module and a 400–460 nm emission filter. Final concentrations of the plate include 5 nM cyclophilin, 0.25% DMSO, 25 µM α-chymotrypsin, 5 µM Suc-AAPF-AMC. Raw fluorescence data was analyzed by non-linear regression analysis with Prism v.9 by fitting one-phase association curves to each well. […] Rate constants calculated for each well (s^−1) were then normalized to substrate only (no prolyl-isomerase) and enzyme + substrate only controls. IC50 values were calculated as the value at which 50% inhibition was achieved on the non-linear regression fitted curve of each compound.
# NKTR = molecular target: T1, NKTR (Homo sapiens, UniProt P30414); type: biochemical; conditions: for prolyl-isomerase activity (raw dose-response value): NKTR
# T1 construct: NKTR (UniProtKB Entry P30414: residues 7–179); host or cells: E. coli BL21(DE3)
# T1 sequence (P30414 7-179): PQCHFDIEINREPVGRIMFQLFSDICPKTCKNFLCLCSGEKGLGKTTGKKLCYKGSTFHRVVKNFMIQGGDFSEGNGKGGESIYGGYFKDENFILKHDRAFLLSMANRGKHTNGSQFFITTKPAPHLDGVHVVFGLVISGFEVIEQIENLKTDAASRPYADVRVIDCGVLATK
# PPWD1 = molecular target: T2, PPWD1 (Homo sapiens, UniProt Q96BP3); type: biochemical; conditions: for prolyl-isomerase activity (raw dose-response value): in s^-1; for IC50: wild-type PPWD1, read-out: Wild-Type Cyclophilin Prolyl Isomerase Inhibition IC50 Values, PPWD1
# T2 construct: PPWD1 (UniProtKB Entry Q96BP3: residues 473–646); host or cells: E. coli BL21(DE3)
# T2 sequence (Q96BP3 473-646): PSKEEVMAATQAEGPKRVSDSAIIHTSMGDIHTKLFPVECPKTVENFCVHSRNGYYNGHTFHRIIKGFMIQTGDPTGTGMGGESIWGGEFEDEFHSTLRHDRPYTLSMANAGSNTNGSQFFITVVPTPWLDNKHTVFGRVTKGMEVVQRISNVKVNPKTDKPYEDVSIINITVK
# Experimental: Five microliters of compound pre-dissolved in 5% DMSO/assay buffer was then added to appropriate wells and incubated at 2–3 °C for 5 min. Five microliters of 0.5 mM α-chymotrypsin from bovine pancreas (Type II, lyophilized powder, Millipore-Sigma) in 20% 1 mM HCl/Assay Buffer was then added to each well and incubated at 2–3 °C for 5 min. The plate was then quickly transferred to a FLIPR Tetra High-Throughput Cellular Screening System (Molecular Devices). Using the internal liquid handling system of the FLIPR, 1 µL 0.5 mM Suc-AAPF-AMC (Chymotrypsin Substrate II, Millipore-Sigma) dissolved in 0.55 M LiCl/2,2,2-trifluoroethanol was added to each well, which was then mixed for 5 s, followed by immediate fluorescence measurements every 1 s for 330 s using a 360–380 nm excitation LED module and a 400–460 nm emission filter. […] Raw fluorescence data was analyzed by non-linear regression analysis with Prism v.9 by fitting one-phase association curves to each well. Analyses were halted after the calculated maximum fluorescent value owing to observed fluorescent bleaching during the sustained fluorescent plateau. Rate constants calculated for each well (s^−1) were then normalized to substrate only (no prolyl-isomerase) and enzyme + substrate only controls.
# [1] = prolyl-isomerase inhibition, 5 nM cyclophilin, read-out: IC50 NKTR
# [2] = wild-type NKTR, read-out: Wild-Type Cyclophilin Prolyl Isomerase Inhibition IC50 Values, NKTR
# [3] = read-out: Wild-Type Cyclophilin Prolyl Isomerase Inhibition IC50 Values, CypD, wild-type CypD
# [4] = read-out: Wild-Type Cyclophilin Prolyl Isomerase Inhibition IC50 Values, Cyp40, wild-type Cyp40
# Chain of Cyp40 (Q08752 1-183): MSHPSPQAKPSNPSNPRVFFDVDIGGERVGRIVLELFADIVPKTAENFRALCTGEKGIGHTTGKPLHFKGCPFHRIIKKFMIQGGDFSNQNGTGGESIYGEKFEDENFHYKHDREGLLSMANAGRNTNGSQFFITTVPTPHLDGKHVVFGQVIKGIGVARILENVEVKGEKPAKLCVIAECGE
# Chain of CypD (P30405 45-207): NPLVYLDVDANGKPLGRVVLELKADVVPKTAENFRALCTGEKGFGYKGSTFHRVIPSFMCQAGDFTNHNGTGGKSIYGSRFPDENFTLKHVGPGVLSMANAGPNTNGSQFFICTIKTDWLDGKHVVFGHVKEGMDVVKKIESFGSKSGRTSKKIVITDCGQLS
structure (smiles),measurement,setting,value
NCCOCCNC(=O)[C@@H]1CCNC(=O)/C=C/C(=O)N2CCC[C@](Cc3ccccc3)(C2)C(=O)N[C@@H](Cc2ccc(-c3ccccc3)cc2)C(=O)NCc2ccccc2CC(=O)N1 [Compound B2],IC50,CypD,0.18 µM
same,prolyl-isomerase activity (raw dose-response value),CypD; dose 0.0195312 µM,0.1243 and 0.1374 and 0.1472
same,prolyl-isomerase activity (raw dose-response value),CypD; dose 0.0390625 µM,0.1094 and 0.1294 and 0.1367
same,prolyl-isomerase activity (raw dose-response value),CypD; dose 0.078125 µM,0.0906 and 0.1127 and 0.1064
same,prolyl-isomerase activity (raw dose-response value),CypD; dose 0.15625 µM,0.06823 and 0.08697 and 0.08033
same,prolyl-isomerase activity (raw dose-response value),CypD; dose 0.3125 µM,0.0483 and 0.05915 and 0.05559
same,prolyl-isomerase activity (raw dose-response value),CypD; dose 0.625 µM,0.03197 and 0.04004 and 0.03906
same,prolyl-isomerase activity (raw dose-response value),CypD; dose 1.25 µM,0.02117 and 0.02794 and 0.0263
same,prolyl-isomerase activity (raw dose-response value),CypD; dose 2.5 µM,0.0143 and 0.01947 and 0.02017
same,prolyl-isomerase activity (raw dose-response value),CypD; dose 5 µM,0.01132 and 0.01248 and 0.01357
same,prolyl-isomerase activity (raw dose-response value),"Cyp40; Cyp40, dose 0.0228624 µM",0.06439 and 0.06966 and 0.09224
same,prolyl-isomerase activity (raw dose-response value),"Cyp40; Cyp40, dose 0.0685871 µM",0.06672 and 0.05591 and 0.0674
same,prolyl-isomerase activity (raw dose-response value),"Cyp40; Cyp40, dose 0.205761 µM",0.05415 and 0.04361 and 0.05573
same,prolyl-isomerase activity (raw dose-response value),"Cyp40; Cyp40, dose 0.617284 µM",0.04036 and 0.03584 and 0.03686
same,prolyl-isomerase activity (raw dose-response value),"Cyp40; Cyp40, dose 1.85185 µM",0.02841 and 0.02381 and 0.02316
same,prolyl-isomerase activity (raw dose-response value),"Cyp40; Cyp40, dose 5.55556 µM",0.01852 and 0.01638 and 0.01429
same,prolyl-isomerase activity (raw dose-response value),"Cyp40; Cyp40, dose 16.6667 µM",0.0159 and 0.01466 and 0.0158
same,prolyl-isomerase activity (raw dose-response value),"Cyp40; Cyp40, dose 50 µM",0.01447 and 0.01343 and 0.01173
same,IC50,"Cyp40; Wild-Type Cyclophilin Prolyl Isomerase Inhibition IC50 Values, Cyp40, wild-type Cyp40",0.26 µM
same,prolyl-isomerase activity (raw dose-response value),NKTR; dose 0.0457247 µM,0.03158 and 0.03033 and 0.03469
same,prolyl-isomerase activity (raw dose-response value),NKTR; dose 0.137174 µM,0.03164 and 0.03314 and 0.03312
same,prolyl-isomerase activity (raw dose-response value),NKTR; dose 0.411523 µM,0.0325 and 0.0338 and 0.02719
same,prolyl-isomerase activity (raw dose-response value),NKTR; dose 1.23457 µM,0.03372 and 0.0315 and 0.03341
same,prolyl-isomerase activity (raw dose-response value),NKTR; dose 3.7037 µM,0.03071 and 0.03218 and 0.03337
same,prolyl-isomerase activity (raw dose-response value),NKTR; dose 11.1111 µM,0.03272 and 0.0287 and 0.03154
same,prolyl-isomerase activity (raw dose-response value),NKTR; dose 33.3333 µM,0.034 and 0.032 and 0.03
same,prolyl-isomerase activity (raw dose-response value),NKTR; dose 100 µM,0.0243 and 0.0254 and 0.02366
same,IC50,NKTR; [1],~100 µM
same,IC50,NKTR; [2],100 µM
same,prolyl-isomerase activity (raw dose-response value),"PPWD1; PPWD1, dose 0.00976562 µM",0.06958 and 0.06894 and 0.06376
same,prolyl-isomerase activity (raw dose-response value),"PPWD1; PPWD1, dose 0.0195312 µM",0.07052 and 0.06933 and 0.06942
same,prolyl-isomerase activity (raw dose-response value),"PPWD1; PPWD1, dose 0.0390625 µM",0.07199 and 0.07365 and 0.06621
same,prolyl-isomerase activity (raw dose-response value),"PPWD1; PPWD1, dose 0.078125 µM",0.0685 and 0.06494 and 0.06712
same,prolyl-isomerase activity (raw dose-response value),"PPWD1; PPWD1, dose 0.15625 µM",0.06342 and 0.0629 and 0.06451
same,prolyl-isomerase activity (raw dose-response value),"PPWD1; PPWD1, dose 0.3125 µM",0.06089 and 0.06073 and 0.06267
same,prolyl-isomerase activity (raw dose-response value),"PPWD1; PPWD1, dose 0.625 µM",0.0549 and 0.05757 and 0.05993
same,prolyl-isomerase activity (raw dose-response value),"PPWD1; PPWD1, dose 1.25 µM",0.05311 and 0.05273 and 0.05312
same,prolyl-isomerase activity (raw dose-response value),"PPWD1; PPWD1, dose 2.5 µM",0.04134 and 0.04153 and 0.04427
same,prolyl-isomerase activity (raw dose-response value),"PPWD1; PPWD1, dose 5 µM",0.03369 and 0.0291 and 0.03053
same,prolyl-isomerase activity (raw dose-response value),"PPWD1; PPWD1, dose 10 µM",0.0224 and 0.02303 and 0.02481
same,IC50,PPWD1,3.2 µM
C[N+]1=C(C=CC=CC=C2N(CCCCCC(=O)NCCNC(=O)C3CCNC(=O)C=CC(=O)N4CCCC(Cc5ccccc5)(C4)C(=O)NC(Cc4ccc(-c5ccc(CC(C(=O)O)C(=O)O)cc5)cc4)C(=O)NCc4ccccc4CC(=O)N3)c3ccccc3C2(C)C)C(C)(C)c2ccccc21 (centres unmarked) [Compound B52-Cy5],IC50,CypD; [3],0.007 µM
same,IC50,Cyp40; [4],> 10 µM
same,IC50,NKTR; [1],~7 µM
same,IC50,NKTR; [2],7 µM
same,IC50,PPWD1,> 10 µM
C[N+]1=C(C=CC=CC=C2N(CCCCCC(=O)NCCNC(=O)C3CCNC(=O)C=CC(=O)N4CCCC(Cc5ccccc5)(C4)C(=O)NC(Cc4ccc(-c5ccc(C(CC(=O)O)CC(=O)O)cc5)cc4)C(=O)NCc4ccccc4CC(=O)N3)c3ccccc3C2(C)C)C(C)(C)c2ccccc21 (centres unmarked) [Compound B53-Cy5],IC50,CypD; [3],0.029 µM
same,IC50,Cyp40; [4],> 2 µM
same,IC50,NKTR; [2],> 2 µM
same,IC50,PPWD1,> 2 µM

# Source: publication PMC9596378, “Discovery and molecular basis of subtype-selective cyclophilin inhibitors” (Nature Chemical Biology, 2022)
